Structures can show the parent of a compound that is named as a salt. Where two headings read alike, the source gives them in different places.
Assays:
[1] = test system: MDA-MB-231 (human breast carcinoma); experiment: Anti-proliferative activity, Alamar Blue assay, MDA-MB-231; type: cell-based; conditions: read-out: EC50, inhibition of cell growth
[2] = biological target: BIR3 domain of human XIAP (residues 252-350) (Homo sapiens (Human), UniProt P98170); experiment: XIAP in vitro competitive displacement binding assay (fluorescence polarization); conditions: for IC50: read-out: IC50 or PI Xiap: IC50; for inhibition at 0.04 µM: 1 h, read-out: IC50 or PI Xiap: PI
[3] = biological target: BIR3 domain of human cIAP-1 (residues 267-363) (Homo sapiens (Human), UniProt Q13490); experiment: cIAP-1 in vitro competitive displacement binding assay (fluorescence polarization; Probe A AVPIK(5&6FAM)-amide or Probe B AbuRPFK(5&6FAM)-amide); conditions: for IC50: read-out: IC50 or PI cIAP1: IC50
[4] = test system: EVSA-T (human breast carcinoma); experiment: Anti-proliferative activity, Alamar Blue assay, EVSA-T; type: cell-based; conditions: Homo sapiens
[5] = MDA-MB-231 cell line, 72 hours, Alamar Blue
[6] = EVSA-T, 72 hours, Alamar Blue, read-out: EVSA-T prolif (EC50)
[7] = EVSA-T, 72 h, read-out: EVSA-T prolif (EC50)
[8] = EVSA-T cell line, 72 hours, Alamar Blue, read-out: EC50, inhibition of cell growth

C=C(c1ccccc1)c1cc2c(cn1)C(C)(C)CN2C(=O)CN1C[C@@H](C)NC[C@@H]1COC [Example 93, 1-[3,3-Dimethyl-6-(1-phenylethenyl)-1H,2H,3H-pyrrolo[3,2-c]pyridin-1-yl]-2-[(2R,5R)-2-(methoxymethyl)-5-methylpiperazin-1-yl]ethan-1-one, hydrochloride salt]
EC50 [1, 5]: < 10000 nM | IC50 [2]: 490 nM | IC50 ([3]; Probe B AbuRPFK(5&6FAM)-amide): 59 nM | EC50 [4, 6]: 1000 nM

COC[C@H]1CN[C@H](C)CN1CC(=O)N1CC(C)(C)c2cnc(C(=O)c3ccccc3)cc21 [Example 96, 1-{6-Benzoyl-3,3-dimethyl-1H,2H,3H-pyrrolo[3,2-c]pyridin-1-yl}-2-[(2R,5R)-2-(methoxymethyl)-5-methylpiperazin-1-yl]ethan-1-one, dihydrochloride salt]
EC50 ([1]; MDA-MB-231, 72 h): < 10000 nM | IC50 [2]: 340 nM | IC50 [3]: 77 nM | EC50 ([4]; EVSA-T, 72 h, read-out: EC50, inhibition of cell growth): < 10000 nM | EC50 [4, 7]: 3000 nM

COC[C@H]1CN[C@H](C)CN1CC(=O)N1CC(C)(C)c2cnc(Cc3cccc(F)c3)cc21 [Example 97, 1-{6-[(3-Fluorophenyl)methyl]-3,3-dimethyl-1H,2H,3H-pyrrolo[3,2-c]pyridin-1-yl}-2-[(2R,5R)-2-(methoxy-methyl)-5-methyl-piperazin-1-yl]ethan-1-one, hydrochloride salt]
EC50 [1, 5]: < 10000 nM | IC50 [2]: 340 nM | IC50 ([3]; Probe B AbuRPFK(5&6FAM)-amide): 17 nM | EC50 [4, 8]: < 10000 nM | EC50 [4, 6]: 320 nM

C[C@@H]1CN(CC(=O)N2CC(C)(C)c3cnc(Cc4ccccc4)cc32)[C@@H](CF)CN1 [Example 121, 1-{6-Benzyl-3,3-dimethyl-1H,2H,3H-pyrrolo[3,2-c]pyridin-1-yl}-2-[(2R,5R)-2-(fluoromethyl)-5-methylpiperazin-1-yl]ethan-1-one hydrochloride]
EC50 [1, 5]: < 10000 nM | IC50 [2]: 190 nM | IC50 ([3]; Probe B AbuRPFK(5&6FAM)-amide): 21 nM | EC50 [4, 6]: 380 nM

C[C@@H]1CN(CC(=O)N2CC(C)(C)c3cnc(Cc4ccccc4)cc32)[C@@H](C(F)F)CN1 [Example 122, 1-{6-Benzyl-3,3-dimethyl-1H,2H,3H-pyrrolo[3,2-c]pyridin-1-yl}-2-[(2R,5R)-2-(difluoromethyl)-5-methylpiperazin-1-yl]ethan-1-one hydrochloride]
EC50 [1, 5]: < 10000 nM | IC50 [2]: 220 nM | IC50 ([3]; Probe B AbuRPFK(5&6FAM)-amide): 29 nM | EC50 [4, 6]: 290 nM

COC[C@H]1CN[C@H](C)CN1CC(=O)N1CC(C)(C)c2cnc(Oc3c(F)cccc3F)cc21 [Example 128, 1-[6-(2,6-Difluorophenoxy)-3,3-dimethyl-1H,2H,3H-pyrrolo[3,2-c]pyridin-1-yl]-2-[(2R,5R)-2-(methoxymethyl)-5-methylpiperazin-1-yl]ethan-1-one hydrochloride]
EC50 [1, 5]: < 10000 nM | IC50 [2]: 380 nM | IC50 ([3]; Probe B AbuRPFK(5&6FAM)-amide): 120 nM | EC50 [4, 8]: < 10000 nM | EC50 [4, 6]: 1100 nM

COC[C@H]1CN[C@H](C)CN1CC(=O)N1CC(C)(C)c2cnc(Oc3c(C)cccc3Cl)cc21 [Example 130, 1-[6-(2-Chloro-6-methylphenoxy)-3,3-dimethyl-1H,2H,3H-pyrrolo[3,2-c]pyridin-1-yl]-2-[(2R,5R)-2-(methoxymethyl)-5-methylpiperazin-1-yl]ethan-1-one hydrochloride]
EC50 [1, 5]: < 10000 nM | IC50 [2]: 200 nM | IC50 ([3]; Probe B AbuRPFK(5&6FAM)-amide): 44 nM | EC50 [4, 8]: < 10000 nM | EC50 [4, 6]: 230 nM

COC[C@H]1CN[C@H](C)CN1CC(=O)N1CC(C)(c2ccccn2)c2ccc(Cc3ccccc3)cc21 (stereo partly drawn) [Example 144, 1-[6-Benzyl-3-methyl-3-(pyridin-2-yl)-2,3-dihydro-1H-indol-1-yl]-2-[(2R,5R)-2-(methoxymethyl)-5-methylpiperazin-1-yl]ethan-1-one hydrochloride]
EC50 [1, 5]: < 10000 nM | IC50 [2]: 240 nM | IC50 ([3]; Probe B AbuRPFK(5&6FAM)-amide): 12 nM | EC50 [4, 6]: 730 nM

COC[C@H]1CN[C@H](C)CN1CC(=O)N1CC(C)(C)c2cnc(-c3cc4ccccc4o3)cc21 [Example 150, 1-[6-(1-Benzofuran-2-yl)-3,3-dimethyl-1H,2H,3H-pyrrolo[3,2-c]pyridin-1-yl]-2-[(2R,5R)-2-(methoxymethyl)-5-methylpiperazin-1-yl]ethan-1-one dihydrochloride]
EC50 ([1]; MDA-MB-231, 72 h): < 10000 nM | IC50 [2]: 270 nM | IC50 [3]: 14 nM | EC50 [4, 7]: 730 nM

C[C@@H]1CN(CC(=O)N2CC(C)(C)c3cnc(Oc4ccccc4Cl)cc32)[C@@H](C(=O)N(C)C)CN1 [Example 151, (2R,5R)-1-{2-[6-(2-Chlorophenoxy)-3,3-dimethyl-1H,2H,3H-pyrrolo[3,2-c]pyridin-1-yl]-2-oxoethyl}-N,N,5-trimethylpiperazine-2-carboxamide dihydrochloride]
EC50 ([1]; MDA-MB-231, 72 h): < 10000 nM | inhibition at 0.04 µM [2]: 48% | IC50 [3]: 19 nM | EC50 [4, 7]: 590 nM

C[C@@H]1CN(CC(=O)N2CC(C)(C)c3cnc(Oc4ccccc4Cl)cc32)[C@@H](CN2CCCC2=O)CN1 [Example 182, 1-{[(2R,5R)-1-{2-[6-(2-Chlorophenoxy)-3,3-dimethyl-1H,2H,3H-pyrrolo[3,2-c]pyridin-1-yl]-2-oxoethyl}-5-methylpiperazin-2-yl]methyl}pyrrolidin-2-one hydrochloride]
EC50 [1, 5]: < 10000 nM | inhibition at 0.04 µM ([2]; @ 0.04 μM): 73% | inhibition at […] ([3]; 3 h, Probe B, @ 0.012 μM, read-out: IC50 or PI cIAP1: PI): 62% | EC50 [4, 8]: < 10000 nM | EC50 [4, 6]: 67 nM

— patent publication US9018214B2, “Bicyclic heterocycle compounds and their uses in therapy” (Astex Therapeutics Limited, priority 2011, dated 2015)
